Assay results published in US20100317736A1, “COMPOSITION OF THE SKIN EXTERNAL APPLICATION OR THE FOOD FOR ACCELERATING PROLINE RECYCLING BY CONTAINING THEANINE” (priority 2007, published 2010).

Assays:
[1] = tested on: Human fibroblasts; assay: Procollagen biosynthesis in dermal cells (ELISA); assay type: cell-based; conditions: 48 hours, FIG. 1
Procedure: Human fibroblasts are cultured in the concentration of 10^4 in 48 well plates. The medium of the plates was replaced with a culture medium containing either 10 μM of vitamin C or 10 μM of transforming growth factor-β (TGF-β) and a culture medium containing either 0.1, 1, 10 or 100 μM of theanine. After culturing for 48 hours, the supernatants were harvested and synthesized procollagen was quantified using the ELISA (Takara MK101) method. The data were calculated relative to 100 of control group without containing the above substances and the result was shown in FIG. 1.

[2] = tested on: Human fibroblasts; assay: Cell viability (MTT); assay type: cell-based; conditions: 1, 10, 100, 1000 and 10000 μM theanine, 24 hours, FIG. 2
Procedure: 2×10^3 of human fibroblasts were cultured in a 96 well plate, treated with 1, 10, 100, 1000 and 10000 μM of theanine and incubated for 24 hours. 3-(4,5-dimethylazol-2-yl)-2,5-diphenyl-2H-tetraazoliumbromide (MTT) was added to the concentration of 0.5 mg/ml and further incubated for 4 hours.

[3] = tested on: prolidase; assay: Prolidase activity in dermal cells (Chinard reaction, Gly-Pro substrate); assay type: cell-based, human; conditions: 0.01, 0.1, 1, 2 or 10 mM theanine, 24 hours, versus untreated control, FIG. 3
Procedure: 10^5 of human fibroblasts were cultured in 6 well plates for 6 days. The medium was replaced with heat-inactivated fetal bovine serum and then incubated for an additional 24 hours. The medium was again replaced with a culture medium containing either 0.01, 0.1, 1, 2 or 10 mM of theanine. After 24 hours, the cells were harvested and subjected to the Chinard reaction. The cells were ultrasonically disrupted and centrifuged at 100,000×g for 15 minutes. The supernatant was collected and mixed with 2 mM MnCl2 in the same amount for the prolidase reaction. The mixture was pre-reacted at 37° C. for 24 hours. 94 mM glycine-proline (Gly-Pro) dipeptide as a substrate of the prolidase reaction was added thereto in the same amount of the pre-reacted mixture and reacted at 37° C. for 1 hours. Then, the reaction was ended by adding 0.45M TCA. The enzymatic activity of prolidase was determined by quantifying proline, which is isolated by prolidase, by the color development using ninhydrin reagent. The enzyme activity was shown as a value calculating the equation of amount of isolated proline over protein weight over time (Mol/min/mg) and the result is shown in FIG. 3.

[4] = tested on: Human fibroblasts; assay: Total collagen biosynthesis in dermal cells (L-[3H]-proline incorporation); assay type: cell-based; conditions: 1 mM theanine, 24 hours, relative to 100 of control group, FIG. 4
Procedure: 5×10^4 of human fibroblasts were cultured in 24 well plates. The medium was replaced with a medium containing 164 kBq/ml L-[^3H]-proline and supplemented with theanine in a concentration either 0.01, 0.1, 1 or 10 mM. After incubation of 24 hours, the cells were harvested, disrupted and treated with collagenase to separate collagen. Then, the amount of ^3H increased by the treatment with theanine was determined using a liquid scintillation counter and compared to that of the control group which had not been treated with theanine. Without regard to the collagen type, the total collagen amount was measured and the data described in FIG. 4 are calculated relative to 100 of the control group. As a result, it was confirmed that the total collagen biosynthesis was increased by about 45% when treated with 1 mM of theanine.

[5] = tested on: SKH-1 female hairless mice; assay: Collagen biosynthesis in hairless mice, closed patch test, western blotting; assay type: in vivo; conditions: cream of Example 1 (theanine 1) on back skin, closed patch test 2 weeks, versus Comparative Example 1, FIG. 5
Text: In order to examine the effect of improving skin wrinkle of theanine, SKH-1 female hairless mice, about 7 weeks old, were subjected to a closed patch test for 2 weeks. Each cream of Example 1 and Comparative Example 1 was applied on the back skin of the hairless mouse and after the closed patch test, the skin was biopsed. Proteins were separated from the biopsed skin and assessed for collagen by western blotting.

[6] = tested on: female hairless mice (SKH, HR-1); assay: Inhibition of photoaging in hairless mouse, oral administration, replica / SkinVisiometer; assay type: in vivo; conditions: 500 mg theanine per kg oral, 5 weeks, UV total 600 mJ/cm^2, versus Comparative Example 3, FIG. 7
Text: In order to examine the effect of orally administered theanine on photoaging, hairless mice were used as animal models for this experiment. As described in Table 2, 6 to 7 week old female hairless mice (SKH, HR-1) were divided into 3 groups of Comparative Example 2 (normal group), Comparative Example 3 (UV control group) and Example 2 (UV/theanine treatment group), each group having 8 mice and were raised for the experiment period.
The mice of Comparative Example 2 and Comparative Example 3 were orally administered with 0.5 ml of saline and the mice of Example 2 were administered with 500 mg of theanine, based on the solid faction, per kg of body weight dissolved in 0.5 ml of saline using a syringe for liquid injection. The administration was continued for total 5 weeks and performed at the predetermined time for 5 days per week. From 2 weeks through 5 weeks after the administration had started, the groups of Comparative Example 3 and Example 2 were irradiated by UV under conditions similar to solar light three times per week. Here, the total UV irradiation for the experiment period was set to 600 mJ/cm^2. In order to objectively judge the effect of improving wrinkle, a replica was taken from the back of each hairless mouse prior to an autopsy. The skin surface was imaged using SkinVisiometer to compare and rates the degree of the skin wrinkles.

[7] = tested on: type 1 collagen; assay: Immunohistochemistry of type 1 collagen in skin tissue; assay type: in vivo, mice; conditions: 500 mg theanine per kg oral, 5 weeks, UV, versus Comparative Example 3, FIG. 8
Procedure: This example was performed using the hairless mice of Example 2 and Comparative Example 2 to 3, which had been used in Experiment Example 6 and histopathological observation was performed by immunohistochemistry. The skin on the back of the hairless mice was taken, fixed in 10% neutral formalin and subjected to immunohistochemistry using monoclonal IgG1 antibody to examine the expression of type 1 collagen in the skin tissue.

[8] = tested on: female hairless mice (SKH, HR-1); assay: H&E staining, thickness of the epidermal layer; assay type: in vivo; conditions: for Thickness of epidermal layer: 500 mg theanine per kg oral, 5 weeks, UV
Procedure: In addition, the H&E (heamatoxylin & eosin) staining assay was performed for observation of general tissue condition and measurement of thickness of the epidermal layer. The thickness of the epidermal layer was measured at 10 different spots randomly selected per tissue by observing the H&E stained slide under the microscope with 100× magnification and the average value was shown in Table 3.

Compound: CCNC(=O)CC[C@H](N)C(=O)O [theanine]
- procollagen production ([1]; 0.1, 1, 10 or 100 μM theanine, relative to 100 of control group): increased collagen production of fibroblast concentration-dependently
- procollagen production compared with positive controls ([1]; versus 10 μM vitamin C or 10 μM TGF-β): higher procollagen production than the positive control groups
- cell viability / toxicity (MTT) [2]: not toxic at all
- prolidase activity (amount of isolated proline) [3]: concentration-dependently increased
- increase of total collagen biosynthesis [4]: about 45%
- collagen biosynthesis in skin (western blotting) [5]: increased the collagen biosynthesis in the hairless mice
- density and depth of the wrinkles on the skin surface [6]: alleviated as compared to those of Comparative Example 3
- type 1 collagen staining in skin tissue [7]: more collagen was stained in the epidermal and dermal junction
- Thickness of epidermal layer [8]: 77.4%
- Thickness of epidermal layer ([8]; average of 10 spots per tissue, the values are: epidermal thickness): 7.56 ± 0.75 µm
- decrease in the thickness of the epidermal layer ([8]; compared to the UV control group (Comparative Example 3)): about 23%
